# Earlier results as cited in patent US9856304B2, “Peptide and application thereof” (Saitama Medical University, priority 2013, dated 2018).
# Tested on: pancreatic β cells
# Details: as described in Patent Document 1; cited from earlier work
row,Substance,activity for promoting increase in pancreatic β cells
1,"B: 19 amino acid fragment of human TM4SF20, Position 78 to 96, from Patent Document 1 (CNNRTGMFLSSLFSVITVI; listed as Homo sapiens)",not as high as expected
2,"C: 19 amino acid fragment of human TM4SF20, Position 161 to 179, from Patent Document 1 (TSNDTMASGWRASSFHFDS; listed as Homo sapiens)",not as high as expected
3,"Peptide A: 19 amino acid fragment of human TM4SF20, Position 98 to 116, from Patent Document 1 (ALYCMLISIQALLKGPLMC; listed as Homo sapiens)",not as high as expected
